25 molecules from patent publication US20150051202A1, “TRIAZOLOPYRAZINE DERIVATIVES” (Merck Patent GmbH, priority 2012, published 2015) can be followed below.

Marks after values point to notes of the source that are not given here. Bounds are passed on as bounds.

One may read the IC50 as the concentration that gives 50% inhibition.

The target of experiment [1] is GCN2 (Homo sapiens, UniProt Q9P2K8). Put plainly: GCN2 enzyme assay (TR-FRET Lanthascreen, GFP-eIF2alpha substrate). The format is biochemical. The text has this:
GCN2: Assay Principle & Conditions
This assay can quantificate the activity of the serin kinase GCN2 (general control non-derepressible-2).
This kinase is involved in the stress metabolism of cells. It is activated upon starvation (amino acid depletion). Its natural substrate is eIF2a (eukaryotic initiation factor 2 alpha subunit), a translation factor, which gets activated (phosphorylated) by GCN2 in case of an amino acid bottleneck in the cells. This in turn leads to a halt of the protein synthesis. Inhibition of GCN2 results in stopping this mechanism: The cell can not stop protein production upon “starvation” stress.
The assay is run in two steps: the enzymatic reaction and the detection step. In the first step GCN2 is incubated with 10 μM ATP and 80 nM of the GFP-labelled substrate eIF2alpha at room temperature.
The enzymatic reaction is stopped by addition of EDTA. The amount of phosphorylated eIF2alpha is determined by TR-FRET (Lanthascreen): A complex is formed consisting of antibody and GFP labelled phospho-eIF2a, which allows a FRET upon exitation at 340 nm.
Final Concentrations in the Enzymatic Reaction • Hepes, pH 7.0 50 mM • MgCl2 10 mM • MnCl2 5 mM • BSA 0.1% • DMSO 1% • ATP 10 uM • DTT 2 mM • GFP-eIF2a 80 nM (substrate) • GCN2 30 nM (enzyme)
A general note: In TR-FRET formats the signal depends on donor and acceptor labels being close together.

Experiment [2] addresses T1, SYK (Homo sapiens, UniProt P43405).
T1 construct: purchased BPS Bioscience, CA, USA
The experiment can be described thus: SYK enzyme assay (Flash plate assay / Caliper mobility shift assay). It counts as biochemical. Particulars: for SYK (enzyme assay) % at 3 μM: 100% corresponds to zero effect, −50% corresponds to IC50. The protocol:
The kinase assay is performed either as 384-well Flashplate assay (for e.g. Topcount measurement) or as 384-well Image-Flashplate assay (for LEADseeker measurement).
2.5 nM SYK, 400 nM Biotin-Aha-Aha-[…]
and 10 μM ATP (spiked with 0.3 μCi 33P-ATP/well) are incubated in a total volume of 50 μl (60 mM Hepes, 10 mM MgCl2, 1.2 mM Dithiothreitol, 0.02% Brij35, 0.1% BSA, pH 7.5) with or without test compound for 1 hours at 30° C. The reaction is stopped with 25 μl 200 mM EDTA. After 30 Min at 30° C. the liquid is removed and each well washed thrice with 100 μl 0.9% sodium chloride solution. Non-specific reaction is determined in presence of 0.1 μM Staurosporine. Radioactivity is measured with Topcount (when using Flashplates) or with LEADseeker (when using Image-Flashplates) respectively. Results (e.g. IC50-values) are calculated with program tools provided by the IT-department (e.g. Symyx Assay Explorer, Genedata Screener).
Enzymatic Assays Using the Caliper LifeSciences Technology
The assays described here are performed on the Caliper Life Sciences LC3000 system This technology provides data on enzyme activity via measurement of the relative amounts of phosphorylated or unphosphorylated fluorescently labelled substrate peptide at the end of an enzymatic reaction.
These different states of peptide are resolved by applying a potential difference across the sample. The presence of the charged phosphate group on the product (as opposed to the substrate) causes a different peptide mobility between the two peptides. This is visualized by excitation of the fluorescent label on the substrate and product peptides and represented as peaks within the analysis software.
In order to measure inhibitor activity of kinase inhibitors on this technology, a TTP Mosquito liquid handling instrument is used to place 0.25 ul of the appropriate concentration of inhibitor in 100% DMSO (for a dose response curve calculation) into each well of a 384-well plate. To this reaction components are added to a final volume of 25 ul. The table below indicates the sequences and concentrations for the assays described in this report. Standard components are 1 mM DTT (Sigma, D0632), 1 mM MgCl2 (Sigma, M1028), 100 mM HEPES pH 7.5 (Calbiochem, 391338), 0.015% Brij-35 (Sigma, B4184).
The reaction is incubated for 90 min at 25 C, and then stopped by the addition of 70 ul of Stop buffer (100 mM HEPES pH 7.5, 0.015% Brij-35, 10 mM EDTA (Sigma, E7889)).
The plate is read on a Caliper LC 3000 in an Off-Chip mobility shift assay format, on a 12-sipper chip. Unphosphorylated substrate and phosphorylated product peptide resolve as separate peaks allowing direct measurement of percentage of conversion of substrate to product. The percent conversion can be plotted against concentration of inhibitor to produce a sigmoidal dose response curve, from which an IC50 can be calculated using GeneData Condoseo or a similar product.

GCN2, sequence (Q9P2K8 whole entry): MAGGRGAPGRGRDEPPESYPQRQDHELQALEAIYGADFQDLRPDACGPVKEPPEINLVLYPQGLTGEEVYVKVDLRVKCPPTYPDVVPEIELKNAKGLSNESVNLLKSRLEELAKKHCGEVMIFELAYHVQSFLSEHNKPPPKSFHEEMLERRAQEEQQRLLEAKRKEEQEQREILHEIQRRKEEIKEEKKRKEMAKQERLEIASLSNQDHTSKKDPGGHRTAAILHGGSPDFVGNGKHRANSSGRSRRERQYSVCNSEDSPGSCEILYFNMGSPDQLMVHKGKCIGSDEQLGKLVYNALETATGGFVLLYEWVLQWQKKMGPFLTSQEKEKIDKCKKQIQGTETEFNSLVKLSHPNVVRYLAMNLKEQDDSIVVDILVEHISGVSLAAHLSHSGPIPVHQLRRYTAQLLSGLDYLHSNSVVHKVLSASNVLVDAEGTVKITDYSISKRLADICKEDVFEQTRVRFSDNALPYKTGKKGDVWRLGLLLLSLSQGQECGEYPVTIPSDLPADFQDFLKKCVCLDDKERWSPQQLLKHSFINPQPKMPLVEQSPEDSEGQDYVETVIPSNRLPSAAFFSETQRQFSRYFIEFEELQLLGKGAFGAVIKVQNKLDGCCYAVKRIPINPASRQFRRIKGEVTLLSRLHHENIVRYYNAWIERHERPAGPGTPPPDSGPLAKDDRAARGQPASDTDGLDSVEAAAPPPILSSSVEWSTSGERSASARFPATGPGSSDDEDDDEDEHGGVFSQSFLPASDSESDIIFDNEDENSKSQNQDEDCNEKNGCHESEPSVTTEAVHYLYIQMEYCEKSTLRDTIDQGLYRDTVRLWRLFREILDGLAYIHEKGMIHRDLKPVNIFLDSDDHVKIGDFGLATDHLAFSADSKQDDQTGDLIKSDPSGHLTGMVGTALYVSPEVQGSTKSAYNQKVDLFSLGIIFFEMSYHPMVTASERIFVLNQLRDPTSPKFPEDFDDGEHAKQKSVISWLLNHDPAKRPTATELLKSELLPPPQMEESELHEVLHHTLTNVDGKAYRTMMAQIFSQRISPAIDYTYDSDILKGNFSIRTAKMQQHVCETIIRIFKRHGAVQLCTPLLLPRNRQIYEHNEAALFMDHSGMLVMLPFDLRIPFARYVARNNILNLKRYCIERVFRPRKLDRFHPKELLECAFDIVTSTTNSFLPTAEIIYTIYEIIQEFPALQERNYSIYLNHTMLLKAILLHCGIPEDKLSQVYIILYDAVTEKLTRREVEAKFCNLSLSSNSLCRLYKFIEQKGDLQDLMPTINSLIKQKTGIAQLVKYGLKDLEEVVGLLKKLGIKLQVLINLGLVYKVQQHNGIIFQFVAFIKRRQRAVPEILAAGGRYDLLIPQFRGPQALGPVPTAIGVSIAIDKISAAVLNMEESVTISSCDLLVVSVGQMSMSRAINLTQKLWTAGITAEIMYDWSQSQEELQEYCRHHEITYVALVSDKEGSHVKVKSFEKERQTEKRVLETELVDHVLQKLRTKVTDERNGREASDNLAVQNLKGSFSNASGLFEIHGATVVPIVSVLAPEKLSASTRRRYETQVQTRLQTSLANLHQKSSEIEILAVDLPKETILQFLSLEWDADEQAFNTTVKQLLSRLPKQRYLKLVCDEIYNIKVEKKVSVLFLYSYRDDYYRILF

Regarding `Cn1ncc2cc(-c3cncc4nc(Nc5ccc(S(C)(=O)=O)cc5)nn34)ccc21` [Compound A1, (4-methanesulfonyl-phenyl)-[5-(1-methyl-1H-indazol-5-yl)-[1,2,4]triazolo[1,5-a]pyrazin-2-yl]-amine], in experiment [1], the IC50 fell in the range of 5000 to 10000 nM. Also, in experiment [2], the “SYK (enzyme assay) % at 3 μM” value was −18@3 * %. As for `COc1cccc(Nc2nc3cncc(-c4ccc5c(cnn5C)c4)n3n2)c1` [Compound A2], the IC50 in experiment [1] is less than 1000 nM. Further, the “SYK (enzyme assay) % at 3 μM” value in experiment [2] is −29@3%.

In turn, `Cn1ncc2cc(-c3cncc4nc(Nc5cccnc5)nn34)ccc21` [Compound A3, [5-(1-methyl-1H-indazol-5-yl)-[1,2,4]triazolo[1,5-a]pyrazin-2-yl]-pyridin-3-yl-amine] returned an IC50 in experiment [1] of 1000 to 5000 nM. For the same molecule, in experiment [2], the “SYK (enzyme assay) % at 3 μM” value is reported as −9@3%. Consider `Cc1cc(Nc2nc3cncc(-c4ccc5c(cnn5C)c4)n3n2)ccc1N1CCN(C)CC1` [Compound A4, [5-(1-methyl-1H-indazol-5-yl)-[1,2,4]triazolo[1,5-a]pyrazin-2-yl]-[3-methyl-4-(4-methyl-piperazin-1-yl)-phenyl]-amine], for which the IC50 in experiment [1] and in experiment [2] was less than 1000 nM in each case. Regarding `Cn1ncc2cc(-c3cncc4nc(Nc5ccc6c(c5)NC(=O)C6(C)C)nn34)ccc21` [Compound A5, 3,3-dimethyl-6-[5-(1-methyl-1H-indazol-5-yl)-[1,2,4]triazolo[1,5-a]pyrazin-2-ylamino]-1,3-dihydro-indol-2-one], the values for the IC50 in experiment [1] and in experiment [2] were 1000 to 5000 nM and less than 1000 nM, respectively. On to `CN(C)Cc1nc2cc(Nc3nc4cncc(-c5ccc6c(cnn6C)c5)n4n3)ccc2[nH]1` [Compound A6, (2-dimethylaminomethyl-1H-benzoimidazol-5-yl)-[5-(1-methyl-1H-indazol-5-yl)-[1,2,4]triazolo[1,5-a]pyrazin-2-yl]-amine], for which the figures for the IC50 in experiment [1] and in experiment [2] were less than 1000 nM and 1000 to 5000 nM, respectively. On to `NS(=O)(=O)c1cccc(Nc2nc3cncc(-c4cnc5ccccc5c4)n3n2)c1` [Compound A7, 3-(5-quinolin-3-yl-[1,2,4]triazolo[1,5-a]pyrazin-2-ylamino)-benzenesulfonamide], for which the IC50 lay within 5000 to 10000 nM in experiment [1] and 1000 to 5000 nM in experiment [2].

`Cc1cc(Nc2nc3cncc(-c4cnc5ccccc5c4)n3n2)ccc1N1CCN(C)CC1` [Compound A8, [3-methyl-4-(4-methyl-piperazin-1-yl)-phenyl]-(5-quinolin-3-yl-[1,2,4]triazolo[1,5-a]pyrazin-2-yl)-amine]: the IC50 in experiment [1] and in experiment [2] was 1000 to 5000 nM throughout. Consider `CC1(C)C(=O)Nc2cc(Nc3nc4cncc(-c5cnc6ccccc6c5)n4n3)ccc21` [Compound A9, 3,3-dimethyl-6-(5-quinolin-3-yl-[1,2,4]triazolo[1,5-a]pyrazin-2-ylamino)-1,3-dihydro-indol-2-one], for which the IC50 in experiment [1] and in experiment [2] was 1000 to 5000 nM in each case.

`Cn1cc(-c2cncc3nc(Nc4cccnc4)nn23)cn1` [Compound A12, [5-(1-methyl-1H-pyrazol-4-yl)-[1,2,4]triazolo[1,5-a]pyrazin-2-yl]-pyridin-3-yl-amine]: in experiment [1], the IC50 was less than 1000 nM. Turning to `Fc1cccc(Nc2nc3cnc(Cl)cn3n2)c1` [Compound A19], in experiment [1], the IC50 is 1000 to 5000 nM. Consider `Fc1ccc(Nc2nc3cnc(Cl)cn3n2)cc1` [Compound A21], for which the IC50 in experiment [1] was 1000 to 5000 nM.

In turn, `COc1cccc(Nc2nc3cnc(C#N)cn3n2)c1` [Compound A23] gave an IC50 in experiment [1] of 1000 to 5000 nM. Regarding `COc1cccc(Nc2nc3cnc(C)cn3n2)c1` [Compound A24, (3-methoxy-phenyl)-(6-methyl-[1,2,4]triazolo[1,5-a]pyrazin-2-yl)-amine], the “SYK (enzyme assay) % at 3 μM” value in experiment [2] is reported as 1@3%. Regarding `Fc1ccc(Nc2cn3nc(Nc4cccnc4)nc3cn2)cc1` [Compound A29, N6-(4-fluoro-phenyl)-N2-pyridin-3-yl-[1,2,4]triazolo[1,5-a]pyrazine-2,6-diamine], the IC50 in experiment [1] lay within 1000 to 5000 nM.

On to `c1cnc2ccc(-c3cncc4nc(Nc5ccc(N6CCOCC6)cc5)nn34)cc2c1` [Compound A33, (4-morpholin-4-yl-phenyl)-(5-quinolin-6-yl-[1,2,4]triazolo[1,5-a]pyrazin-2-yl)-amine], for which, in experiment [1], the IC50 lay in the range of 1000 to 5000 nM.

On to `Cn1ncc2cc(-c3cncc4nc(Nc5ccc6c(c5)CC(=O)N6)nn34)ccc21` [Compound A38, 5-[5-(1-methyl-1H-indazol-5-yl)-[1,2,4]triazolo[1,5-a]pyrazin-2-ylamino]-1,3-dihydro-indol-2-one], for which the IC50 in experiment [1] was less than 1000 nM.

In experiment [1], `Cn1ncc2cc(-c3cncc4nc(Nc5cccc(S(N)(=O)=O)c5)nn34)ccc21` [Compound A39, 3-[5-(1-methyl-1H-indazol-5-yl)-[1,2,4]triazolo[1,5-a]pyrazin-2-ylamino]-benzenesulfonamide] returned an IC50 of less than 1000 nM.

Turning to `Cc1cc(Nc2nc3cncc(-c4ccc(C(C)(C)C#N)cc4)n3n2)ccc1N1CCN(C)CC1` [Compound A40, 2-methyl-2-(4-{2-[3-methyl-4-(4-methyl-piperazin-1-yl)-phenylamino]-[1,2,4]triazolo[1,5-a]pyrazin-5-yl}-phenyl)-propionitrile], the IC50 in experiment [1] is less than 1000 nM. Molecule `Cn1cc(-c2cncc3nc(Nc4ccc5c(c4)CC(=O)N5)nn23)cn1` [Compound A41, 5-[5-(1-methyl-1H-pyrazol-4-yl)-[1,2,4]triazolo[1,5-a]pyrazin-2-ylamino]-1,3-dihydro-indol-2-one] displayed an IC50 in experiment [1] of less than 1000 nM. In turn, `Cc1cc(Nc2nc3cncc(-c4cnn(C)c4)n3n2)ccc1N1CCN(C)CC1` [Compound A42, 5-(1-methyl-1H-pyrazol-4-yl)-N-(3-methyl-4-(4-methylpiperazin-1-yl)phenyl)-[1,2,4]triazolo[1,5-a]pyrazin-2-amine] had a concentration for half-maximal inhibition (IC50) in experiment [1] of less than 1000 nM. Take `Cc1cc(Nc2nc3cncc(-c4cccc(NS(C)(=O)=O)c4)n3n2)ccc1N1CCN(C)CC1` [Compound A43, N-(3-(2-((3-methyl-4-(4-methylpiperazin-1-yl)phenyl)amino)-[1,2,4]triazolo[1,5-a]pyrazin-5-yl)phenyl)methanesulfonamide]: the IC50 in experiment [1] was less than 1000 nM. Turning to `Cc1cc(Nc2nc3cncc(-c4cccc(C(N)=O)c4)n3n2)ccc1N1CCN(C)CC1` [Compound A54, 3-{2-[3-methyl-4-(4-methyl-piperazin-1-yl)-phenylamino]-[1,2,4]triazolo[1,5-a]pyrazin-5-yl}-benzamide], the IC50 in experiment [1] lay within 1000 to 5000 nM. On the same count and under the same terms, for `CN1CCN(c2ccc(Nc3nc4cncc(-c5cnn(C)c5)n4n3)cn2)CC1` [Compound A90, [6-(4-methyl-piperazin-1-yl)-pyridin-3-yl]-[5-(1-methyl-1H-pyrazol-4-yl)-[1,2,4]triazolo[1,5-a]pyrazin-2-yl]-amine] the value was less than 1000 nM; for `CNS(=O)(=O)c1cccc(-c2cncc3nc(Nc4ccc(N5CCN(C)CC5)c(OC)c4)nn23)c1` [Compound A96, 3-{2-[3-methoxy-4-(4-methyl-piperazin-1-yl)-phenylamino]-[1,2,4]triazolo[1,5-a]pyrazin-5-yl}-N-methyl-benzenesulfonamide], 1000 to 5000 nM.
